Test results: patent US12043632B2, “6-heteroaryloxy benzimidazoles and azabenzimidazoles as JAK2 inhibitors” (Ajax Therapeutics, Inc., priority 2020, dated 2024)
pKd: −log10 of the molar value.

biological target: T1, JAK2 (JH1domain-catalytic, Y1007F,Y1008F) kinase (Homo sapiens, UniProt O60674, Y1007F/Y1008F); experiment: JAK2 JH1 Domain Binding Assay; settings: qPCR readout
T1 construct: JAK2 (JH1domain-catalytic, Y1007F,Y1008F) kinase was expressed as N-terminal fusion; made in house; host or cells: transiently transfected HEK293 cells
T1 sequence (O60674 849-1124 Y1007F/Y1008F limits assumed): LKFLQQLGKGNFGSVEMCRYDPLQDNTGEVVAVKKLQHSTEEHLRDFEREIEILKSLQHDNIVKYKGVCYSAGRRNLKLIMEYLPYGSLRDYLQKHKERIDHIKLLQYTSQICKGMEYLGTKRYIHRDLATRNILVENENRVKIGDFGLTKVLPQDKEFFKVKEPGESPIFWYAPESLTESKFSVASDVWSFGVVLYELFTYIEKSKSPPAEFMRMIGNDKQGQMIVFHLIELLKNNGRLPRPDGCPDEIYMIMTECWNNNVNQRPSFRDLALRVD

| Compound | pKd |
| --- | --- |
| Cn1cc(C(F)(F)F)cc(Nc2nc3ncc(Oc4cnn5ccnc(O[C@H]6CC[C@@H]6O)c45)c(Cl)c3n2C)c1=O (single isomer, unassigned) [Example I-139-b] | > 8.00 |
| Cn1c(Nc2cc(C(C)(C)C)n([C@H]3CC[C@H]3O)n2)nc2ncc(Oc3cnn4ccncc34)c(Cl)c21 (single isomer, unassigned) [Example I-147-a] | > 8.00 |
| Cn1c(Nc2cc(C(C)(C)C)n([C@@H]3CC[C@@H]3O)n2)nc2ncc(Oc3cnn4ccncc34)c(Cl)c21 (single isomer, unassigned) [Example I-147-b] | > 8.00 |
| Cn1c(Nc2cc(C3CC3)nn([C@@H]3CCCOC3)c2=O)nc2ncc(Oc3cnn4ccccc34)c(Cl)c21 (single isomer, unassigned) [Example I-148-a] | > 8.00 |
| Cn1c(Nc2cc(C3CC3)nn([C@H]3CCCOC3)c2=O)nc2ncc(Oc3cnn4ccccc34)c(Cl)c21 (single isomer, unassigned) [Example I-148-b] | 7.30 to 8.00 |
| Cn1c(Nc2cc(C(C)(C)C)n([C@H]3COC[C@@H]3O)n2)nc2ncc(Oc3cnn4ccncc34)c(C#N)c21 (single isomer, unassigned) [Example I-150-a] | 7.30 to 8.00 |
| Cn1c(Nc2cc(C(C)(C)C)n([C@@H]3COC[C@H]3O)n2)nc2ncc(Oc3cnn4ccncc34)c(C#N)c21 (single isomer, unassigned) [Example I-150-b] | 7.30 to 8.00 |
| CNc1nccn2ncc(Oc3cnc4nc(Nc5cc(C(F)(F)F)cn([C@H]6CCCOC6)c5=O)n(C)c4c3Cl)c12 (single isomer, unassigned) [Example I-245-a] | > 8.00 |
| CNc1nccn2ncc(Oc3cnc4nc(Nc5cc(C(F)(F)F)cn([C@@H]6CCCOC6)c5=O)n(C)c4c3Cl)c12 (single isomer, unassigned) [Example I-245-b] | 7.30 to 8.00 |
| CNc1nccn2ncc(Oc3cnc4nc(Nc5cc(C(F)(F)F)cn([C@H]6CCOC6)c5=O)n(C)c4c3Cl)c12 (single isomer, unassigned) [Example I-262-a] | > 8.00 |
| CNc1nccn2ncc(Oc3cnc4nc(Nc5cc(C(F)(F)F)cn([C@@H]6CCOC6)c5=O)n(C)c4c3Cl)c12 (single isomer, unassigned) [Example I-262-b] | > 8.00 |
| CN1C[C@@H](F)[C@H](n2nc(Nc3nc4ncc(Oc5cnn6ccncc56)c(Cl)c4n3C)cc2C(C)(C)C)C1 (single isomer, unassigned) [Example I-267-a] | 7.30 to 8.00 |
| CN1C[C@H](F)[C@@H](n2nc(Nc3nc4ncc(Oc5cnn6ccncc56)c(Cl)c4n3C)cc2C(C)(C)C)C1 (single isomer, unassigned) [Example I-267-b] | 6.00 to 7.30 |
| CNc1nccn2ncc(Oc3cnc4nc(Nc5cc(C6CCCN6C)cc(C(F)(F)F)c5)n(C)c4c3Cl)c12 (single isomer, unassigned) [Example I-269-a] | 7.30 to 8.00 |
| CNc1nccn2ncc(Oc3cnc4nc(Nc5cc(C6CCCN6C)cc(C(F)(F)F)c5)n(C)c4c3Cl)c12 (single isomer, unassigned) [Example I-269-b] | 7.30 to 8.00 |
| CN1CCC[C@@H]1c1cc(Nc2nc3ncc(Oc4cnn5ccncc45)c(Cl)c3n2C)cc(C(F)(F)F)c1 (single isomer, unassigned) [Example I-270-a] | > 8.00 |
| CN1CCC[C@H]1c1cc(Nc2nc3ncc(Oc4cnn5ccncc45)c(Cl)c3n2C)cc(C(F)(F)F)c1 (single isomer, unassigned) [Example I-270-b] | > 8.00 |
| CNc1nccn2ncc(Oc3cnc4nc(Nc5cc(C(F)(F)F)n([C@H]6COC[C@@H]6O)n5)n(C)c4c3Cl)c12 (single isomer, unassigned) [Example I-279-a] | > 8.00 |
| CNc1nccn2ncc(Oc3cnc4nc(Nc5cc(C(F)(F)F)n([C@@H]6COC[C@H]6O)n5)n(C)c4c3Cl)c12 (single isomer, unassigned) [Example I-279-b] | > 8.00 |
| CNc1nccn2ncc(Oc3cnc4nc(Nc5cc([C@@H]6CCOC6)nc(C(F)(F)F)c5)n(C)c4c3Cl)c12 (single isomer, unassigned) [Example I-280-a] | 7.30 to 8.00 |
| CNc1nccn2ncc(Oc3cnc4nc(Nc5cc([C@H]6CCOC6)nc(C(F)(F)F)c5)n(C)c4c3Cl)c12 (single isomer, unassigned) [Example I-280-b] | 7.30 to 8.00 |
| CN1CCCCC1COc1cc(Nc2nc3ncc(Oc4cnn5ccncc45)c(Cl)c3n2C)cc(C(F)(F)F)c1 (single isomer, unassigned) [Example I-350-a] | > 8.00 |
| CN1CCCCC1COc1cc(Nc2nc3ncc(Oc4cnn5ccncc45)c(Cl)c3n2C)cc(C(F)(F)F)c1 (single isomer, unassigned) [Example I-350-b] | > 8.00 |
| CNc1cn2ncc(Oc3cnc4nc(Nc5cc(C(F)(F)F)cn([C@H]6CCCOC6)c5=O)n(C)c4c3Cl)c2cn1 (single isomer, unassigned) [Example I-352-a] | 7.30 to 8.00 |
| CNc1cn2ncc(Oc3cnc4nc(Nc5cc(C(F)(F)F)cn([C@@H]6CCCOC6)c5=O)n(C)c4c3Cl)c2cn1 (single isomer, unassigned) [Example I-352-b] | 7.30 to 8.00 |
| CNc1cn2ncc(Oc3cnc4nc(Nc5cc([C@H]6CCCN6C)cc(C(F)(F)F)c5)n(C)c4c3Cl)c2cn1 (single isomer, unassigned) [Example I-359-a] | 6.00 to 7.30 |
| CNc1cn2ncc(Oc3cnc4nc(Nc5cc([C@@H]6CCCN6C)cc(C(F)(F)F)c5)n(C)c4c3Cl)c2cn1 (single isomer, unassigned) [Example I-359-b] | 6.00 to 7.30 |

The next lines start with the values.

| pKd | Compound |
| --- | --- |
| > 8.00 | CNc1cn2ncc(Oc3cnc4nc(Nc5cc(C(F)(F)F)cn([C@H]6CCOC6)c5=O)n(C)c4c3Cl)c2cn1 (single isomer, unassigned) [Example I-305] |
| 7.30 to 8.00 | CNc1cn2ncc(Oc3cnc4nc(Nc5cc(C(F)(F)F)cn([C@@H]6CCOC6)c5=O)n(C)c4c3Cl)c2cn1 (single isomer, unassigned) [Example I-306] |
| > 8.00 | CN1CCCC1c1ccc(Nc2nc3ncc(Oc4cnn5ccncc45)c(Cl)c3n2C)cc1C(F)(F)F (single isomer, unassigned) [Example I-343] |
| > 8.00 | CN1CCC[C@@H]1c1ccc(Nc2nc3ncc(Oc4cnn5ccncc45)c(Cl)c3n2C)cc1C(F)(F)F (single isomer, unassigned) [Example I-344] |
| 7.30 to 8.00 | COCCN1CCC(n2nc(Nc3nc4ncc(Oc5cnn6ccncc56)c(C(F)F)c4n3C)cc2C(C)(C)C)C1 (stereo in doubt) [Example I-52, (S)—N-(5-(tert-butyl)-1-(1-(2-methoxyethyl)pyrrolidin-3-yl)-1H-pyrazol-3-yl)-7-(difluoromethyl)-1-methyl-6-(pyrazolo[1,5-a]pyrazin-3-yloxy)-1H-imidazo[4,5-b]pyridin-2-amine] |
| > 8.00 | Cn1c(Nc2cc(C(F)(F)F)cn([C@H]3C[C@H](O)C3)c2=O)nc2ncc(Oc3cnn4ccncc34)c(Cl)c21 (stereo in doubt) [Example I-89, trans-3-((7-chloro-1-methyl-6-(pyrazolo[1,5-a]pyrazin-3-yloxy)-1H-imidazo[4,5-b]pyridin-2-yl)amino)-1-(3-hydroxycyclobutyl)-5-(trifluoromethyl)pyridin-2(1H)-one] |
| > 8.00 | Cn1c(Nc2ccc(CN3CCC(O)C3)c(C(F)(F)F)c2)nc2ncc(Oc3cnn4ccncc34)c(Cl)c21 (stereo in doubt) [Example I-185, (S)-1-(4-((7-chloro-1-methyl-6-(pyrazolo[1,5-a]pyrazin-3-yloxy)-1H-imidazo[4,5-b]pyridin-2-yl)amino)-2-(trifluoromethyl)benzyl)pyrrolidin-3-ol] |
| > 8.00 | Cn1c(Nc2ccc(CN3CCC(O)C3)c(C(F)(F)F)c2)nc2ncc(Oc3cnn4ccncc34)c(Cl)c21 (stereo in doubt) [Example I-186, (R)-1-(4-((7-chloro-1-methyl-6-(pyrazolo[1,5-a]pyrazin-3-yloxy)-1H-imidazo[4,5-b]pyridin-2-yl)amino)-2-(trifluoromethyl)benzyl)pyrrolidin-3-ol] |
| > 8.00 | Cn1c(Nc2cc(N3CCC(O)C3)cc(C(F)(F)F)c2)nc2ncc(Oc3cnn4ccncc34)c(Cl)c21 (stereo in doubt) [Example I-239, (S)-1-(3-((7-chloro-1-methyl-6-(pyrazolo[1,5-a]pyrazin-3-yloxy)-1H-imidazo[4,5-b]pyridin-2-yl)amino)-5-(trifluoromethyl)phenyl)pyrrolidin-3-ol] |
| > 8.00 | CN(C)C1CCN(Cc2cc(Nc3nc4ncc(Oc5cnn6ccncc56)c(Cl)c4n3C)cc(C(F)(F)F)c2)C1 (stereo in doubt) [Example I-272, (R)-7-chloro-N-(3-((3-(dimethylamino)pyrrolidin-1-yl)methyl)-5-(trifluoromethyl)phenyl)-1-methyl-6-(pyrazolo[1,5-a]pyrazin-3-yloxy)-1H-imidazo[4,5-b]pyridin-2-amine] |
| 7.30 to 8.00 | Cn1c(Nc2cc(C(C)(C)C)n([C@@H]3CCOC3)n2)nc2ncc(Oc3cnc4[nH]c(C5CC5)cc4c3)cc21 [Example I-1, (R)—N-(5-(tert-butyl)-1-(tetrahydrofuran-3-yl)-1H-pyrazol-3-yl)-6-((2-cyclopropyl-1H-pyrrolo[2,3-b]pyridin-5-yl)oxy)-1-methyl-1H-imidazo[4,5-b]pyridin-2-amine] |
| 7.30 to 8.00 | Cn1c(Nc2cc(C(C)(C)C)n([C@H]3CCOC3)n2)nc2ncc(Oc3cnc4[nH]c(C5CC5)cc4c3)cc21 [Example I-2, (S)—N-(5-(tert-butyl)-1-(tetrahydrofuran-3-yl)-1H-pyrazol-3-yl)-6-((2-cyclopropyl-1H-pyrrolo[2,3-b]pyridin-5-yl)oxy)-1-methyl-1H-imidazo[4,5-b]pyridin-2-amine] |
| > 8.00 | Cc1n[nH]c2ncc(Oc3cnc4nc(Nc5cc(C(C)(C)C)n([C@@H]6CCOC6)n5)n(C)c4c3)cc12 [Example I-3] |
| > 8.00 | Cc1n[nH]c2ncc(Oc3cnc4nc(Nc5cc(C(C)(C)C)n([C@H]6CCOC6)n5)n(C)c4c3)cc12 [Example I-4, (S)—N-(5-(tert-butyl)-1-(tetrahydrofuran-3-yl)-1H-pyrazol-3-yl)-1-methyl-6-((3-methyl-1H-pyrazolo[3,4-b]pyridin-5-yl)oxy)-1H-imidazo[4,5-b]pyridin-2-amine] |
